Data taken from patent US12630497B2, “Compound having malate dehydrogenase inhibitory activity and pharmaceutical composition for preventing or treating cancer comprising same as active ingredient” (DONGGUK UNIVERSITY INDUSTRY-ACADEMIC COOPERATION FOUNDATION, priority 2017, dated 2026).

Target: T1, MDH1 (Homo sapiens, UniProt P40925)
T1 sequence (P40925 1-334): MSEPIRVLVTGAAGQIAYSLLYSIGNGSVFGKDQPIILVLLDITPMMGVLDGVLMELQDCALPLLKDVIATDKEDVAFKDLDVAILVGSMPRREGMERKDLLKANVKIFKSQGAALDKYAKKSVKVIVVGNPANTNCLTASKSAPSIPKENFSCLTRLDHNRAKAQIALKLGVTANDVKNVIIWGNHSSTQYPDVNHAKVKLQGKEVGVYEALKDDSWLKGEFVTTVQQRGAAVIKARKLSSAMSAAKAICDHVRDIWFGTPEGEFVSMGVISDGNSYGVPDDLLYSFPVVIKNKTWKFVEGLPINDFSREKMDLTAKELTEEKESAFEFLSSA
Test: MDH1 enzyme kinetics with varied NADH (Lineweaver-Buck plot)

MDH inhibiting mechanism (NADH 60-300 μM, 600 μM oxaloacetate): competitively inhibiting MDH
maximum velocity (Vmax) (as NADH concentration changes): does not change
SMILES: COC(=O)c1cccc(NC(=O)CCOc2ccc(C(C)(C)CC(C)(C)C)cc2)c1 [Compound 9-2, Methyl 3-(3-(4-(2,4,4-trimethylpentan-2-yl)phenoxy)propanamido)benzoate]
